Measurements published in US9782420B2, “Method for treating eye diseases” (Kyoto University, priority 2013, dated 2017).

Key:
[1] = system: CCR2 (monocyte chemoattractant protein 1 (MCP-1) receptor) deficient mice; test: Experiment 1: Removal of drusen in aged mice; assay type: in vivo
Experimental: Experiment 1: Removal of Drusen in Aged Mice
The effect of the compound of number 32 (Compound 32) to remove previously formed drusen in relatively aged mice was tested. CCR2 (monocyte chemoattractant protein 1 (MCP-1) receptor) deficient mice were used. The mice in the group of Compound 32 (n=30 eyes) were orally administered with 50 mg/kg/day of Compound 32 dissolved in saline five days week from the age of nine months. The mice in the control group (n=48 eyes) were orally administered with the saline. The mice in the both groups were allowed to freely drink water. At the age of 6, 9, 10, 11, 12, 13, 14, and 15 months, the mice were examined by fundus photographs, optical coherence tomography (OCT) (Multiline OCT, Heidelberg Engineering) and electroretinogram (ERG).

CCR2 deficient mice = test: Experiment 2: Suppression of formation of drusen in young mice; assay type: in vivo
Experimental: Experiment 2: Suppression of Formation of Drusen in Young Mice
The effect of the compound of number 32 (Compound 32) to suppress the formation of the drusen in young mice was tested. CCR2 deficient mice were used. The mice were allowed to freely drink water containing 0.385 mg/ml of Compound 32 from the age of two months. The mice in the control group were allowed to freely drink water not containing Compound 32. At the age of 2, 3.5, 6, and 9 months, the mice were examined by fundus photographs, OCT, and ERG.

## Cc1cc(F)ccc1-c1ccc(/N=N/c2cc(S(=O)(=O)[O-])c3ccccc3c2N)cn1.[Na+] [Compound 32, 4-amino-3-[6-(4-fluoro-2-methylphenyl)pyridine-3-ylazo]naphthalene-1-sulfonic acid sodium salt]
[1]; aged CCR2 deficient mice, oral 50 mg/kg/day from age of nine months, age 6 to 15 months, vs saline control
  numbers of the drusen found in the fundus photographs (FIG. 5): the drusen were gradually increased in the control group but not in the mice administered with Compound 32
[1]; aged CCR2 deficient mice, oral 50 mg/kg/day in saline five days a week from age of nine months, photographs at age 9 and 15 months
  drusen in fundus photographs (FIGS. 2 to 4): the drusen disappeared in the area bounded by the line
[1]; mice 1 to 4 administered with Compound 32, oral 50 mg/kg/day from age of nine months
  time-dependent change of the numbers of the drusen in individual mice (FIG. 6): gradually decreased after the administration
[1]; mice at the age of 15 months, oral 50 mg/kg/day from age of nine months, vs control, p=<0.05
  b-wave amplitudes in the electroretinogram (FIG. 7): retinal function is better in the mice administered with Compound 32 than in the control mice
CCR2 deficient mice; mice at the age of 9 months, drinking water 0.385 mg/ml from age of two months, vs control, p=<0.001
  a-wave amplitudes in the electroretinogram (FIG. 14): function of photoreceptor cells is better in the mice administered with Compound 32 than in the control mice
CCR2 deficient mice; mice at the age of 9 months, drinking water 0.385 mg/ml from age of two months, vs control, p=<0.05
  b-wave amplitudes in the electroretinogram (FIG. 13): retinal function is better in the mice administered with Compound 32 than in the control mice
CCR2 deficient mice; young CCR2 deficient mice, drinking water 0.385 mg/ml from age of two months, age 2, 3.5, 6 and 9 months, vs control, p=<0.05
  number of the drusen found in the fundus photographs (FIG. 12): the drusen were gradually increased in the control group but not in the mice administered with Compound 32
CCR2 deficient mice; young CCR2 deficient mice, drinking water containing 0.385 mg/ml from age of two months, photographs at age 3.5, 6, and 9 months
  drusen in fundus photographs (FIGS. 9 to 11): the drusen did not increase
